According to patent US20140094462A1, “SONIC HEDGEHOG MODULATORS” (priority 2009, published 2014):
Like-named read-outs stand apart in the source and are kept apart here.

Assays:
ShhN protein = biological target: T1, ShhN protein (Homo sapiens, UniProt Q15465); assay: Surface Plasmon Resonance (SPR) protein binding assay on immobilized ShhN
T1 construct: auto-cleavage of full length Shh into an active 20 kD N-terminal fragment (ShhN); purchased R&D Systems
Method: Biacore™ T100 (GE Healthcare, Uppsala, Sweden) was used to perform the experiments described herein. Sensor surface preparation and interaction analyses experiments were performed at 25° C.
Control surfaces were prepared similarly without protein derivatization and were utilized as a reference surfaces for compound binding experiments.
Zero concentration blank buffer cycles were included as negative control samples.
Data analysis was carried out using Biacore T100 evaluation software v1.1.1. […] Solvent correction was then applied as described previously.

Gli1 = assay: Primary keratinocyte cell culture, reduction in Gli mRNA; format: cell-based; conditions: primary human keratinocytes
Method: To study the potency of the compounds of the invention in cells, select compounds of the invention were conducted with keratinocytes and the reduction in Gli mRNA was measured. Culturing of primary human keratinocytes was previously described (Nguyen, B. C., et al., Genes & Dev. 20:1028-1042 (2006)). The full thickness skin model, EpiDermFT System (MatTek, Ashland), consisted of normal, human-derived epidermal keratinocytes and normal, human-derived dermal fibroblasts which have been cultured to form a multilayered, highly differentiated model of the human dermis and epidermis. […] Gene expression is compared by quantifying mRNA levels by real time RT-PCR. For this, total RNA preparations […] are used in a reverse transcriptase reaction with a mix of oligonucleotide dT and random hexamer primers, followed by real time PCR with gene-specific primers (Gli1: Qiagen Quantitect PrimerAssay QT00060501; Gli2: Qiagen Quantitect PrimerAssay QT00018648), using an […] real time detection system (Bio-Rad) according to the manufacturer's recommendation, with SYBR Green (Bio-Rad) for detection.

[1] = rcm bond, toluene
C3H10T1/2 = assay: Induction of osteogenic differentiation (modulation of osteoblast differentiation); conditions: Mus musculus, C3H 10T1/2, read-out: IC50 (nM) C3H10T1/2
From the text: Using assays previously described in Dwyer et al., J. Biol. Chem. 282, (2007), 8959-68 and Nakamura et al., Biochm. […] Res. Comm., 237 (1997) 465-9, select compounds of the invention were screened for their ability to modulate osteoblast differentiation.

[2] = SPR, Biacore T100, ShhN immobilized on CM4 chip, 25° C., compound 0.78 μM-25 μM, read-out: KD

T1 sequence (Q15465 24-197 limits assumed, species assumed): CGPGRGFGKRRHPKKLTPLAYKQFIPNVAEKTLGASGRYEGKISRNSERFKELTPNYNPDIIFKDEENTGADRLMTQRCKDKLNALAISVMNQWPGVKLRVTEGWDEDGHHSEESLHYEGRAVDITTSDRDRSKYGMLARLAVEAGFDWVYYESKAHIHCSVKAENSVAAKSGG

SMILES | Kd (ShhN protein; [2]) [nM] | IC50 (Gli1) [nM] | IC50 (C3H10T1/2) [nM] | also measured
CN1C(=O)CC/C=C/C[C@@H](CC(=O)NCc2ccc(Cl)cc2)C(=O)OC[C@H]1c1ccccc1 [GH, N-(4-chlorobenzyl)-2-((3R,11S,E)-4-methyl-5,12-dioxo-3-phenyl-1-oxa-4-azacyclododec-8-en-11-yl)acetamide] | 1000 to 100000 | 1000 to 100000 |  | 
O=C(CCc1ccc(Cl)cc1)N[C@@H]1C/C=C/CCC(=O)O[C@H](c2ccccc2)CNC1=O [CA] |  | > 100000 |  | 
C[C@@H]1C/C=C/C[C@H](C)C(=O)N[C@H](c2ccccc2)COC1=O [Example D, (3R,6S,11R,E)-6,11-dimethyl-3-phenyl-1-oxa-4-azacyclododec-8-ene-5,12-dione] | < 100 |  | 100 to 1000 | ring closure, yield of all isomers ([1]; from C=CC[C@@H](C)C(=O)OC[C@H](NC(=O)[C@@H](C)CC=C)c1ccccc1, Grubbs II, 20.0 mM, 25.0 °C, 12.0 h): 78%
O=C(C[C@@H]1C/C=C/CCC(=O)O[C@H](c2ccccc2)CNC1=O)NC1CCCc2ccccc21 (some centres unmarked) [ER] | 1000 to 100000 | 100 to 1000 |  | 
O=C(C[C@@H]1C[C@@H]2O[C@H]2CCC(=O)O[C@H](c2ccccc2)CNC1=O)NCc1ccc(Cl)cc1 [Example BY, N-(4-chlorobenzyl)-2-((1S,6R,10S,12S)-4,9-dioxo-6-phenyl-5,13-dioxa-8-azabicyclo[10.1.0]tridecan-10-yl)acetamide] | 100 to 1000 | < 100 |  | 
O=C(C[C@@H]1C[C@H](O)[C@@H](O)CCC(=O)OC[C@@H]2CCCN2C1=O)NCc1ccc(Cl)cc1 [Example G, N-(4-chlorobenzyl)-2-((6S,7S,9S,14aS)-6,7-dihydroxy-3,10-dioxododecahydro-1H-pyrrolo[2,1-c][1,4]oxaazacyclododecin-9-yl)acetamide] | 100 to 1000 |  | 1000 to 100000 | 
C[C@H]1C/C=C/C[C@@H](CC(=O)NCc2ccc(Cl)cc2)C(=O)NC[C@@H](c2ccccc2)OC1=O [Example DF, N-(4-chlorobenzyl)-2-((2R,6S,11S,E)-11-methyl-5,12-dioxo-2-phenyl-1-oxa-4-azacyclododec-8-en-6-yl)acetamide] | 100 to 1000 |  | 100 to 1000 | 
C[C@H]1C/C=C/C[C@@H](CC(=O)NCc2ccc(Cl)cc2)C(=O)OC[C@@H](c2ccccc2)NC1=O [Example DI, N-(4-chlorobenzyl)-2-((3R,6S,11S,E)-6-methyl-5,12-dioxo-3-phenyl-1-oxa-4-azacyclododec-8-en-11-yl)acetamide] | 100 to 1000 |  | 1000 to 100000 | 
CC(C)N[C@H]1C/C=C/C[C@@H](CC(=O)NCc2ccc(Cl)cc2)C(=O)NC[C@@H](c2ccccc2)OC1=O [Example DE, N-(4-chlorobenzyl)-2-((2R,6S,11S,E)-11-(isopropylamino)-5,12-dioxo-2-phenyl-1-oxa-4-azacyclododec-8-en-6-yl)acetamide] | 100 to 1000 |  | 100 to 1000 | 
O=C1CC/C=C/C[C@@H](O)C(=O)OC[C@@H](c2ccccc2)N1 [Example H, (3R,11R,E)-11-hydroxy-3-phenyl-1-oxa-4-azacyclododec-8-ene-5,12-dione] | < 100 |  | 1000 to 100000 | 
CCOCCNC(=O)C[C@@H]1C/C=C/CCC(=O)O[C@H](c2ccccc2)CNC1=O [EH] | > 100000 | 1000 to 100000 |  | 
O=C(C[C@@H]1C/C=C/CCC(=O)O[C@H](c2ccccc2)CNC1=O)NCC1CCOCC1 [Example EF, 2-((2R,6S,E)-5,12-dioxo-2-phenyl-1-oxa-4-azacyclododec-8-en-6-yl)-N-((tetrahydro-2H-pyran-4-yl)methyl)acetamide] | 1000 to 100000 | 1000 to 100000 |  | 
O=C(O)C[C@@H]1C/C=C/CCC(=O)O[C@H](c2ccccc2)CNC1=O [GC, 2-((2R,6S,E)-5,12-dioxo-2-phenyl-1-oxa-4-azacyclododec-8-en-6-yl)acetic acid] | > 100000 | > 100000 |  | 
C[C@@H]1CCCCCC(=O)N[C@H](c2ccccc2)COC1=O [Example J, (3R,11R)-11-methyl-3-phenyl-1-oxa-4-azacyclododecane-5,12-dione] | < 100 |  | 1000 to 100000 | 
O=C(C[C@@H]1C[C@@H]2O[C@H]2CCC(=O)N[C@H](c2ccccc2)COC1=O)NCc1ccc(Cl)cc1 [Example CD, N-(4-chlorobenzyl)-2-((1S,3S,7R,12S)-4,9-dioxo-7-phenyl-5,13-dioxa-8-azabicyclo[10.1.0]tridecan-3-yl)acetamide] | 1000 to 100000 | 1000 to 100000 |  | 
CC(=O)N[C@@H]1C/C=C/C[C@@H](C)C(=O)OC[C@@H](c2ccccc2)NC1=O [Example N, N-((3R,6R,11R,E)-11-methyl-5,12-dioxo-3-phenyl-1-oxa-4-azacyclododec-8-en-6-yl)acetamide] | 100 to 1000 |  | > 100000 | 
CCN(CC)CCCNC(=O)C[C@@H]1C/C=C/CCC(=O)O[C@H](c2ccccc2)CNC1=O [EG] | > 100000 | 1000 to 100000 |  | 
O=C(C[C@@H]1C[C@H](O)[C@@H](O)CCC(=O)O[C@H](c2ccccc2)CNC1=O)NCc1ccc(Cl)cc1 [Example BZ, N-(4-chlorobenzyl)-2-((2R,6S,8S,9S)-8,9-dihydroxy-5,12-dioxo-2-phenyl-1-oxa-4-azacyclododecan-6-yl)acetamide] | 1000 to 100000 | 100 to 1000 |  | 
O=C(C[C@@H]1C/C=C/CCC(=O)N[C@H](c2ccc(F)cc2)COC1=O)NCc1ccc(Cl)cc1 [Example CS, N-(4-chlorobenzyl)-2-((3R,11S,E)-3-(4-fluorophenyl)-5,12-dioxo-1-oxa-4-azacyclododec-8-en-11-yl)acetamide] | 100 to 1000 |  | < 100 | 
C[C@@H]1C/C=C/CC(F)(F)C(=O)N[C@H](c2ccccc2)COC1=O [Example K, (3R,11R,E)-6,6-difluoro-11-methyl-3-phenyl-1-oxa-4-azacyclododec-8-ene-5,12-dione] | 100 to 1000 |  | > 100000 | ring closure, yield of all isomers ([1]; from C=CC[C@@H](C)C(=O)OC[C@H](NC(=O)C(F)(F)CC=C)c1ccccc1): 84%
CCCCN1CCC(CNC(=O)C[C@@H]2C/C=C/CCC(=O)O[C@H](c3ccccc3)CNC2=O)CC1 [EI] | > 100000 | 1000 to 100000 |  | 
C[C@H]1[C@@H](c2ccccc2)OC(=O)CCCCC[C@@H](CC(=O)NCc2ccc(Cl)cc2)C(=O)N1C [Example DC, N-(4-chlorobenzyl)-2-((2R,3S,6S)-3,4-dimethyl-5,12-dioxo-2-phenyl-1-oxa-4-azacyclododecan-6-yl)acetamide] | 100 to 1000 |  | 100 to 1000 | 
O=C(C[C@@H]1C/C=C/CCC(=O)OC[C@@H]2CCCN2C1=O)NCc1ccc(Cl)cc1 [DP, N-(4-chlorobenzyl)-2-((9S,14aS,E)-3,10-dioxo-3,4,5,8,9,10,12,13,14,14a-decahydro-1H-pyrrolo[2,1-c][1,4]oxaazacyclododecin-9-yl)acetamide] | 1000 to 100000 |  | 1000 to 100000 | 
O=C(C[C@@H]1C/C=C/CCC(=O)O[C@H](c2ccccc2)CNC1=O)NCc1ccc([N+](=O)[O-])cc1 [Example DQ, 2-((2R,6S,E)-5,12-dioxo-2-phenyl-1-oxa-4-azacyclododec-8-en-6-yl)-N-(4-nitrobenzyl)acetamide] |  |  | > 100000 | Kd (ShhN protein): 1000 to 100000 nM
O=C1CC/C=C/CCC(=O)O[C@H](c2ccccc2)CN1 [Example CB, (R,E)-2-phenyl-1-oxa-4-azacyclododec-8-ene-5,12-dione] | > 100000 | 100 to 1000 |  | 
O=C(C[C@@H]1C/C=C/CCC(=O)N[C@H](c2ccccc2)COC1=O)NCc1ccc(Cl)nc1 [Example DD, N-((6-chloropyridin-3-yl)methyl)-2-((3R,11S,E)-5,12-dioxo-3-phenyl-1-oxa-4-azacyclododec-8-en-11-yl)acetamide] | < 100 |  | 100 to 1000 | 
